Assay results published in patent EP4378448B1, “EXTRACT OF FLOWERS, LEAVES AND/OR SEED PODS OF IMPATIENS AND LEAVES OF PANDANUS, IN DRIED AND LIQUID FORM, A METHOD OF ITS OBTAINING AND USE THEREOF” (PBCLABS Sp. z o.o., priority 2022, dated 2024).

Assays:
Type in all cases: biochemical
[1] = system: collagenase from Clostridium haemolyticum; experiment: Inhibition of collagenase activity (FALGPA substrate); conditions: 100 µg/mL (extract in glycerol; EGCG standard at 100 µg/mL)
Protocol: The enzymatic method for the determination of collagenase (EC 3.4.24.3) using FALGPA (N-(3-[2-furyl]acryloyl)-Leu-Gly-Pro-Ala) as substrate for collagenase, which was dissolved in 50 mM Tricine buffer (pH 7.5) at an initial concentration of 0.8 U/mL, was used for the study. FALGPA was dissolved in Tricine buffer to 2 mM. Various concentrations were prepared from the lyophilised extract of Example 1 by dissolving in glycerol and incubating with the enzyme for 15 minutes before adding the substrate to start the reaction. The final reaction mixture (150 µL) contained Tricine buffer, 0.8 mM of FALGPA, 0.1 U of collagenase and the extract at appropriate concentration. Epigallocatechin gallate (EGCG; Supelco) at the concentration of 100 µg/mL was used as a standard. The absorbance at wavelength of λ=345 nm was measured immediately after substrate addition and then continuously for 20 minutes.

[2] = target: T1, porcine pancreatic elastase (Sus scrofa, UniProt P00772); experiment: Inhibition of elastase activity (AAAPVN substrate); conditions: 100 µg/mL (extract in glycerol; EGCG standard at 100 µg/mL)
T1 construct: purchased Sigma-Aldrich
Protocol: The method using porcine pancreatic elastase (PE - E.C.3.4.21.36; Sigma-Aldrich) was used for the study, which was dissolved in distilled water to prepare a stock solution with a concentration of 3.33 mg/mL. The substrate […] (AAAPVN; Sigma-Aldrich) was dissolved in 1.6 mM Tris-HCl buffer (pH 8.0). The extract of Example 1 dissolved in glycerol (concentrations of 5-100 µg/mL) was incubated with the enzyme for 15 minutes before adding the substrate to start the reaction. The final reaction mixture in the well of the 96-well plate (total volume 200 µL) contained buffer, 0.8 mM of AAAPVN, 1 µg/mL of elastase and 25 µL of extract at the appropriate concentration. Epigallocatechin gallate (EGCG; Supelco) at the concentration of 100 µg/mL was used as a standard. Negative controls were performed using water. Absorbance values were measured immediately after substrate addition and then after 20 minutes at wavelength of λ=410 nm.

soybean lipoxygenase = target: T2, soybean lipoxygenase (Glycine max, UniProt P08170); experiment: Anti-inflammatory properties, lipoxygenase inhibition; conditions: positive control, concentration not given
T2 construct: purchased Sigma-Aldrich Chemie GmbH, Steinheim, Germany
T2 sequence (P08170 1-839): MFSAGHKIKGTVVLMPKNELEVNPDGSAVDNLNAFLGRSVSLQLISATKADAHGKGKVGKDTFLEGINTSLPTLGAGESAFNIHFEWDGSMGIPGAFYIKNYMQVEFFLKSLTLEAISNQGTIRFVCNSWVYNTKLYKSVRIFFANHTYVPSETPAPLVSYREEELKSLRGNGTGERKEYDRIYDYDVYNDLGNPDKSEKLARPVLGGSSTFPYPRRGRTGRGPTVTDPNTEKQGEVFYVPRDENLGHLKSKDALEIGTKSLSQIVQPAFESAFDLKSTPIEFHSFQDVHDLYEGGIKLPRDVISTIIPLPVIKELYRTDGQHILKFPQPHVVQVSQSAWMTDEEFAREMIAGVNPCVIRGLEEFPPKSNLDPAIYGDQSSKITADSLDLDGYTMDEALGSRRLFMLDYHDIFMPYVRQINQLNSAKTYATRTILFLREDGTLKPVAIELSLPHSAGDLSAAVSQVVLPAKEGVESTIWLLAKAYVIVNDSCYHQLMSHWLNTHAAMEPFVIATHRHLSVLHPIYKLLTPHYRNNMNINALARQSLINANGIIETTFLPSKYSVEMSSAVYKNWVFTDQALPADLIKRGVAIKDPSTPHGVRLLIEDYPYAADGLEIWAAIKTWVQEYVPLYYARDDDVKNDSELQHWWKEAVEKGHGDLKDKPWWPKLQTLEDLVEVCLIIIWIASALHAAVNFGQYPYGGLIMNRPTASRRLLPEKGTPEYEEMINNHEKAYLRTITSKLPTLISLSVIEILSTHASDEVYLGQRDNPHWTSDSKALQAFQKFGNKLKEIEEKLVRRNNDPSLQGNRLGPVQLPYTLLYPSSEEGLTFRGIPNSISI
Protocol: The study of anti-inflammatory activity of the extract of Example 1 was assessed on the basis of lipoxygenase inhibition using a spectrophotometric method in 96-well plates. For this purpose, 100 µL of various concentrations of extract solution in potassium phosphate buffer (pH = 8.5), 50 µL of soybean lipoxygenase solution (LOX; 167 U/mL; Sigma-Aldrich Chemie GmbH, Steinheim, Germany) in potassium phosphate buffer (pH = 8.5), and finally 50 µL of linoleic acid solution (LA; 134 µM; Sigma-Aldrich Chemie GmbH, Steinheim, Germany) were added to the wells. Changes in absorbance at 234 nm were then measured for a period of 25 minutes with intervals of 30 seconds. Indomethacin (Sigma-Aldrich) was used as a positive control. The activity of the extract was calculated as the percentage of LOX enzyme activity (% of activity) in relation to the maximal activity (negative control - solution without studied extract) after subtracting the absorbance of the extract at 234 nm in all cases. Absorbance values at the 10th minute of the reaction were used for the calculations.

fungal tyrosinase = experiment: Inhibition of fungal tyrosinase activity (L-DOPA substrate); conditions: standard at 100 µL/mL
Protocol: The tyrosinase (EC 1.14.18.1, 25 KU, fungal tyrosinase, Sigma-Aldrich) inhibitory effect was measured using L-3,4-dihydroxyphenylalanine (L-DOPA, Supelco) as a substrate. To perform it, various concentrations of the studied extract (20 µL), tyrosinase solution (200 U/mL, 40 µL) and phosphate buffer (100 µL, 50 mM, pH 6.5) were applied to a 96-well plate, and then incubated for 15 minutes at 25°C. The reaction was started with the addition of L-DOPA (40 µL) and incubated for a further 15 minutes, after which the absorbance was measured at wavelength of λ=475 nm compared to the control without the inhibitor. In the control sample, representing 100% of enzyme activity, phosphate buffer was added instead of the extract. Tyrosinase inhibitory activity was determined by comparing the enzyme activity in samples with and without the assessed inhibitor. Kojic acid (Supelco) at a concentration of 100 µL/mL was used as a standard.

T1 sequence (P00772 27-266): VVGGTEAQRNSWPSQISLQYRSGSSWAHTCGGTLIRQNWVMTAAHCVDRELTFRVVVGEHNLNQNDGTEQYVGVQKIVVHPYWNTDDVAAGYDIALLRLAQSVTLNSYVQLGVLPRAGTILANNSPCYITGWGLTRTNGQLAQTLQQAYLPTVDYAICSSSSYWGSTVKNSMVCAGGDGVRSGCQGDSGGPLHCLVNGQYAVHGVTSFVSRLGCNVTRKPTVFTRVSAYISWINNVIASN

SMILES: O=C(O[C@@H]1Cc2c(O)cc(O)cc2O[C@@H]1c1cc(O)c(O)c(O)c1)c1cc(O)c(O)c(O)c1 [EGCG, Epigallocatechin gallate]
- Collagenase inhibition (%) [1]: 84.45%
- inhibition at 100 µg/mL [2]: 92.2%

SMILES: COc1ccc2c(c1)c(CC(=O)O)c(C)n2C(=O)c1ccc(Cl)cc1 [Indomethacin]
- Inhibition of LOX activity [%] (soybean lipoxygenase): 99.80%

SMILES: O=c1cc(CO)occ1O [kojic acid]
- Tyrosinase inhibition [%] (fungal tyrosinase): 61.17%
